# Measurements reported in publication PMC2248166, “Quantitative peptide binding motifs for 19 human and mouse MHC class I molecules derived using positional scanning combinatorial peptide libraries” (Immunome Research, 2008).
# Molecular target: HLA A*3001 (Homo sapiens, UniProt P04439, D140H/D185E/E176W/F33S/G80R/H175R/K168Q/R138E/R41S)
# Test: biochemical
# Type: binding
# Conditions: not given
row,Sequence,"Normalized average relative binding affinity (ARB), HLA A*3001"
1,XXGXXXXXX [3064.0046],0.0022
2,XXHXXXXXX [3064.0047],0.089
3,XXIXXXXXX [3064.0048],0.020
4,XXKXXXXXX [3064.0049],0.20

# Molecular target: HLA A*3201 (Homo sapiens, UniProt P04439, A270S/D101S/D185E/E176V/E277Q/F133L/G103R/G107R/G231S/H175R/I121M/I218V/I322F/K168Q/L105A/L300P/L318F/M331R/P208A/P217A/Q94H/R106L/R138Q/S129P/T104I/T323A/T345S/V100E/V321M/V358M)
# Test: biochemical
# Type: binding
# Conditions: not given
row,Sequence,"Normalized average relative binding affinity (ARB), HLA A*3201"
1,XXGXXXXXX [3064.0046],0.20
2,XXHXXXXXX [3064.0047],0.24
3,XXIXXXXXX [3064.0048],0.60
4,XXKXXXXXX [3064.0049],0.092

# Molecular target: HLA A*6802 (Homo sapiens, UniProt P04439, A269V/D140Y/D185E/E176V/E277Q/E87N/F33Y/G231S/I121R/I166T/I218V/L180W/L300P/L318F/N151K/P208A/P217A/Q86R/R138H/R169H/S129P/T345S/V36M)
# Test: not given
# Type: binding
# Conditions: not given
row,Sequence,"Normalized average relative binding affinity (ARB), HLA A*6802"
1,XXGXXXXXX [3064.0046],0.061
2,XXHXXXXXX [3064.0047],0.14
3,XXIXXXXXX [3064.0048],0.38
4,XXKXXXXXX [3064.0049],0.11

# Molecular target: HLA B*0702 (Homo sapiens, UniProt P01889)
# Test: not given
# Type: binding
# Conditions: positional scanning combinatorial 9-mer library; normalized to 1.0 for the best residue at each position
row,Sequence,"Normalized average relative binding affinity (ARB), HLA B*0702"
1,XXGXXXXXX [3064.0046],0.052
2,XXHXXXXXX [3064.0047],0.39
3,XXIXXXXXX [3064.0048],0.12
4,XXKXXXXXX [3064.0049],0.20

# Molecular target: HLA B*0801 (Homo sapiens, UniProt P01889, A93T/A95T/D138N/E176V/E187T/K202T/Q94N/R180D/S35A/V36M/Y33D/Y91F)
# Test: biochemical
# Type: binding
# Conditions: not given
row,Sequence,"Normalized average relative binding affinity (ARB), HLA B*0801"
1,XXGXXXXXX [3064.0046],0.086
2,XXHXXXXXX [3064.0047],0.35
3,XXIXXXXXX [3064.0048],0.15
4,XXKXXXXXX [3064.0049],0.96

# Molecular target: HLA B*1501 (Homo sapiens, UniProt P01889, A329T/A93T/A95T/C349S/D201E/D98Y/E187L/E204Q/E69M/E70A/K202T/N87E/Q94N/R155S/R180W/S121R/S35A/S48A/V306I/V36M/Y140S/Y91S)
# Test: biochemical
# Type: binding
# Conditions: not given
row,Sequence,"Normalized average relative binding affinity (ARB), HLA B*1501"
1,XXGXXXXXX [3064.0046],0.14
2,XXHXXXXXX [3064.0047],0.68
3,XXIXXXXXX [3064.0048],1.0
4,XXKXXXXXX [3064.0049],0.53

# Molecular target: HLA B*1503 (Homo sapiens, UniProt P01889, A329T/A93T/A95T/C349S/D201E/D98Y/E187L/E204Q/K202T/N87E/Q94N/R155S/R180L/S121R/S35A/V306I/V36M/Y140S/Y91S)
# Test: biochemical
# Type: binding
# Conditions: not given
row,Sequence,"Normalized average relative binding affinity (ARB), HLA B*1503"
1,XXGXXXXXX [3064.0046],0.063
2,XXHXXXXXX [3064.0047],0.19
3,XXIXXXXXX [3064.0048],0.17
4,XXKXXXXXX [3064.0049],0.095

# Molecular target: HLA B*2705 (Homo sapiens, UniProt P01889, D138H/D201E/E176V/E204Q/G107R/H137Y/K202T/N104T/N87E/Q56L/Q94K/R106L/R155S/R180L/S101D/S121N/S48T/Y140D/Y33H/Y91C)
# Test: not given
# Type: binding
# Conditions: positional scanning combinatorial 9-mer library; normalized to 1.0 for the best residue at each position
row,Sequence,"Normalized average relative binding affinity (ARB), HLA B*2705"
1,XXGXXXXXX [3064.0046],0.17
2,XXHXXXXXX [3064.0047],0.26
3,XXIXXXXXX [3064.0048],0.22
4,XXKXXXXXX [3064.0049],0.21

# Molecular target: HLA B*3501 (Homo sapiens, UniProt P01889, A329T/A93T/A95T/C349S/D201E/D98Y/E176V/E187L/E204Q/E69T/I218V/K202T/L119I/Q94N/R155S/R180L/S121R/S35A/S48A/T118I/V127L/V306I/V36M/Y140S/Y91F)
# Test: not given
# Type: binding
# Conditions: not given
row,Sequence,"Normalized average relative binding affinity (ARB), HLA B*3501"
1,XXGXXXXXX [3064.0046],0.068
2,XXHXXXXXX [3064.0047],0.094
3,XXIXXXXXX [3064.0048],0.16
4,XXKXXXXXX [3064.0049],0.096

# Molecular target: HLA B*5101 (Homo sapiens, UniProt P01889, A329T/A93T/A95T/C349S/D138N/D201E/D98Y/E187L/E204Q/E69T/G107R/I218V/K202T/L105A/L119W/N104I/Q94N/R106L/R155S/R180L/S101N/S121T/S35A/S48A/V306I/V36M/Y195H/Y91F)
# Test: not given
# Type: binding
# Conditions: not given
row,Sequence,"Normalized average relative binding affinity (ARB), HLA B*5101"
1,XXGXXXXXX [3064.0046],0.078
2,XXHXXXXXX [3064.0047],0.60
3,XXIXXXXXX [3064.0048],0.39
4,XXKXXXXXX [3064.0049],0.20

# Molecular target: HLA B*5301 (Homo sapiens, UniProt P01889, A329T/A93T/A95T/C349S/D201E/D98Y/E176V/E187L/E204Q/E69T/G107R/I218V/K202T/L105A/L119I/N104I/Q94N/R106L/R155S/R180L/S101N/S121R/S35A/S48A/T118I/V127L/V306I/V36M/Y140S/Y91F)
# Test: not given
# Type: binding
# Conditions: not given
row,Sequence,"Normalized average relative binding affinity (ARB), HLA B*5301"
1,XXGXXXXXX [3064.0046],0.046
2,XXHXXXXXX [3064.0047],0.059
3,XXIXXXXXX [3064.0048],0.26
4,XXKXXXXXX [3064.0049],0.019

# Molecular target: HLA B*5401 (Homo sapiens, UniProt P01889, A329T/C349S/D138N/D201E/E176V/E187T/E204Q/E69G/I76V/K202T/L119W/R155S/R180L/S121T/S35A/S48A/V127L/V306I/V36M/Y140L)
# Test: not given
# Type: binding
# Conditions: not given
row,Sequence,"Normalized average relative binding affinity (ARB), HLA B*5401"
1,XXGXXXXXX [3064.0046],0.025
2,XXHXXXXXX [3064.0047],0.013
3,XXIXXXXXX [3064.0048],0.083
4,XXKXXXXXX [3064.0049],0.015

# Molecular target: HLA B*5801 (Homo sapiens, UniProt P01889, A329T/C349S/D201E/D98Y/E176V/E187L/E204Q/E69T/G107R/I218V/I90N/K202T/L105A/L119I/N104I/N87E/Q89R/Q94S/R106L/R155S/R180L/R86G/S101N/S121R/S35A/S48A/T118I/V127L/V306I/V36M/Y140S/Y91M)
# Test: not given
# Type: binding
# Conditions: not given
row,Sequence,"Normalized average relative binding affinity (ARB), HLA B*5801"
1,XXGXXXXXX [3064.0046],0.12
2,XXHXXXXXX [3064.0047],0.19
3,XXIXXXXXX [3064.0048],0.77
4,XXKXXXXXX [3064.0049],0.020

# Molecular target: HLA B*5802 (Homo sapiens, UniProt P01889, A329T/C349S/D201E/D98Y/E176V/E187L/E204Q/E69T/G107R/I218V/I90N/K202T/L105A/N104I/N87E/Q89R/Q94S/R106L/R155S/R180L/R86G/S101N/S121W/S35A/S48A/V127L/V306I/V36M/Y140S/Y91M)
# Test: not given
# Type: binding
# Conditions: not given
row,Sequence,"Normalized average relative binding affinity (ARB), HLA B*5802"
1,XXGXXXXXX [3064.0046],0.17
2,XXHXXXXXX [3064.0047],0.42
3,XXIXXXXXX [3064.0048],1.0
4,XXKXXXXXX [3064.0049],0.081

# Molecular target: H-2 D^b (Mus musculus, UniProt P01899)
# Test: not given
# Type: binding
# Conditions: not given
# Chain of H-2 D^b (P01887 21-119): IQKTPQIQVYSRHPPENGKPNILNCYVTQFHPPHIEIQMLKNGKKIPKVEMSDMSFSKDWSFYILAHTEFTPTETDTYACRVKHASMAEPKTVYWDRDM
# Chain of H-2 D^b (P01899 25-362): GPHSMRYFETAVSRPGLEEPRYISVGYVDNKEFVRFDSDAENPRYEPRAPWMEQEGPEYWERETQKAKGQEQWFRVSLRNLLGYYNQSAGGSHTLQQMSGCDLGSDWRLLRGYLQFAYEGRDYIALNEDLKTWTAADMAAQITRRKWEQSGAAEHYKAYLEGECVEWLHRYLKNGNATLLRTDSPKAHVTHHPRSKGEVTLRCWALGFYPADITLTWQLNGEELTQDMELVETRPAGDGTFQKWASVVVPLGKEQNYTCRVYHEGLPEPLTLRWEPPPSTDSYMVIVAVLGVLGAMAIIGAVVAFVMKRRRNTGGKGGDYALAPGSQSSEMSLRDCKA
row,Sequence,"Normalized average relative binding affinity (ARB), H-2 Db"
1,XXGXXXXXX [3064.0046],0.13
2,XXHXXXXXX [3064.0047],0.20
3,XXIXXXXXX [3064.0048],0.24
4,XXKXXXXXX [3064.0049],0.028

# Molecular target: H-2 D^d (Mus musculus, UniProt P01900)
# Test: not given
# Type: binding
# Conditions: not given
# Chain of H-2 D^d (P01900 whole entry, looked up): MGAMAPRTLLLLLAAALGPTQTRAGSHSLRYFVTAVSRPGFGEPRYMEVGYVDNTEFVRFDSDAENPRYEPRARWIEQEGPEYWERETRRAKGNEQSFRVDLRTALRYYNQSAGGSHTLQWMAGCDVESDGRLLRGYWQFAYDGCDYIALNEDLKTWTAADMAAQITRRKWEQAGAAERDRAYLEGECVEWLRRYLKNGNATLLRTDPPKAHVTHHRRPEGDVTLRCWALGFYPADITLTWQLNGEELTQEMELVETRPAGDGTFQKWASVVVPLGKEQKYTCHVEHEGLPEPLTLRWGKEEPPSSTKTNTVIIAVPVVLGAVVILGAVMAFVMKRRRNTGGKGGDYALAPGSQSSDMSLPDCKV
row,Sequence,"Normalized average relative binding affinity (ARB), H-2 Dd"
1,XXGXXXXXX [3064.0046],0.0040
2,XXHXXXXXX [3064.0047],0.0028
3,XXIXXXXXX [3064.0048],0.0041
4,XXKXXXXXX [3064.0049],0.0033

# Molecular target: H-2 K^k (Mus musculus, UniProt P04223)
# Test: not given
# Type: binding
# Conditions: not given
# Chain of H-2 K^k (P01887 21-119): as the sequence (P01887 21-119) above
# Chain of H-2 K^k (P04223 22-369): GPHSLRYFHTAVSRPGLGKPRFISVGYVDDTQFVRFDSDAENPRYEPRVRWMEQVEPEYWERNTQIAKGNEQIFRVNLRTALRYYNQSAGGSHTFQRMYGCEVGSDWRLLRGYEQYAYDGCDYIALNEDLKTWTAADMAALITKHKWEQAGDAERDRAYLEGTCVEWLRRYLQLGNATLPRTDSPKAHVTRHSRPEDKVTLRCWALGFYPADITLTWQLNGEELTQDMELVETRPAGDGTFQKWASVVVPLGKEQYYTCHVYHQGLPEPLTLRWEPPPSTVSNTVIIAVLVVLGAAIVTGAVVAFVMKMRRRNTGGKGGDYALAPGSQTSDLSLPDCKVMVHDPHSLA
row,Sequence,"Normalized average relative binding affinity (ARB), H-2 Kk"
1,XXGXXXXXX [3064.0046],0.19
2,XXHXXXXXX [3064.0047],0.72
3,XXIXXXXXX [3064.0048],0.26
4,XXKXXXXXX [3064.0049],0.39

# Molecular target: HLA A*0201 (Homo sapiens, UniProt P04439, D140Y/D185E/D98H/E176V/E277Q/G131W/G231S/I119V/I121R/I166T/I218V/L300P/L318F/N151K/N90K/P208A/P217A/Q86G/Q94H/R138H/R169H/T345S)
# Test: not given
# Conditions: positional scanning combinatorial 9-mer library; normalized to 1.0 for the best residue at each position
row,Sequence,"Normalized average relative binding affinity (ARB), HLA A*0201"
1,XXGXXXXXX [3064.0046],0.098
2,XXHXXXXXX [3064.0047],0.27
3,XXIXXXXXX [3064.0048],0.54
4,XXKXXXXXX [3064.0049],0.016
